Assay results reported in US6399654B1, “Biflavanoids and derivatives thereof as antiviral agents” (priority 1995, dated 2002).
Values after ≈ are worked out from the molar mass of the structure shown. Read-outs that look alike come from different tables or passages of the source.

What was measured:
2.2.15 cells = experiment: HBV cytotoxicity assay, neutral red dye uptake in 2.2.15 cells; type: cell-based; settings: Homo sapiens, read-out: IC50 (toxicity, neutral red dye uptake)
Method: The toxicity of the test compounds in cultures of 2.2.15 cells, grown to confluence in 96-well flat-bottomed tissue culture plates and treated with compounds as described above, were assayed at four concentrations each in triplicate cultures, in 3 to 10-fold steps. Untreated control cultures were maintained on each plate. On each plate, wells containing no cells were used to correct for light scattering.
Stock solutions of text drugs were prepared in DMSO.

[1] = system: Influenza A (H1N1) Texas/36/91; experiment: microbe, parasite or virus in culture; type: cell-based, influenza A virus; settings: Influenza A virus, MDCK; Influenza A (H1N1) Texas/36/91; read-out: CPE Inhibition EC50
[2] = system: Influenza A (H3N2) Beijing/32/92; experiment: microbe, parasite or virus in culture; type: cell-based, influenza A virus; settings: Influenza A virus, MDCK; Influenza A (H3N2) Beijing/32/92; read-out: CPE Inhibition EC50
[3] = system: Influenza A (H3N2) Beijing/32/92; experiment: microbe, parasite or virus in culture; type: cell-based, influenza A virus; settings: Influenza A virus, MDCK; Influenza A (H3N2) Beijing/32/92; read-out: Neutral Red EC50
Influenza B Panama/45/90 = experiment: microbe, parasite or virus in culture; type: cell-based; settings: Influenza B virus, MDCK, read-out: Neutral Red EC50
HSV-2 = HSV-2 CPE inhibition in HFF cells; settings: for HSV-2 SI (CC50/EC50): HFF Cells
[4] = Cytotoxicity by neutral red dye uptake, A549 cells; settings: human
[5] = Cytotoxicity (CC50) in HFF cells in the herpes virus tests; settings: human
HFF Cells = experiment: as above; settings: HFF Cells; for HSV-2 CPE Inhibition CC50: HSV-2 test

O=c1cc(-c2ccc(O)c(-c3c(O)cc4oc(-c5ccc(O)cc5)cc(=O)c4c3O)c2)oc2cc(O)cc(O)c12 [Robustaflavone (3), robustaflavone]
IC50 (2.2.15 cells): 337 µM | EC50 [1]: 1.9 µg/mL (≈ 3.53 µM) | EC50 [2]: 1.9 µg/mL (≈ 3.53 µM) | EC50 [3]: 1.8 µg/mL (≈ 3.34 µM) | EC50 (Influenza B Panama/45/90): 0.22 µg/mL (≈ 0.409 µM) | HSV-2 SI (CC50/EC50) (HSV-2; listed as Robustaflavone(3)): >11.8 | HSV-2 SI (CC50/EC50) (HSV-2; listed as robustaflavone (3)): > 11.8 | EC50 (HSV-2; Human alphaherpesvirus 2, HFF, read-out: HSV-2 CPE Inhibition EC50): 8.5 µg/mL (≈ 15.8 µM) | IC50 [4]: 102 µg/mL (≈ 189 µM) | CC50 at 3 days [5]: > 100 µg/mL | CC50 at 14 days [5]: > 100 µg/mL | HSV-1 CPE Inhibition CC50 (HFF Cells; HSV-1 test): >100 µg/mL | HSV-2 CPE Inhibition CC50 (HFF Cells; listed as Robustaflavone(3)): >100 µg/mL | HSV-2 CPE Inhibition CC50 (HFF Cells; listed as robustaflavone (3)): > 100 µg/mL
